# In patent publication US20030134859A1 (SANKYO COMPANY, LIMITED, priority 2000, published 2003):
# Counter-ions that a name gives are not always drawn.
# Tests used:
# [1] = system: Rat white adipocytes; assay: Stimulation of differentiation of the adipocytes (Oil Red O); assay type: cell-based; details: 100 nM test compound, 5 days, Oil Red O ABS550, control = 100%, blank = 0%, Table 7; for activity at 0.1 µM: Rattus norvegicus, Adipocyte, 120 h, read-out: Rate of Differentiation (%)
# Method: Rat white adipocytes contained in the white adipocyte culture kit, which was purchased from HOKUDO, were used. Mediums for proliferation and for differentiation-inducing, which were contained in the white adipocyte culture kit purchased from HOKUDO, were used.
# Immediately after arrival of the purchased cells, all medium for transportation was discarded and replaced with 5 ml of proliferation medium (/25 cm^2-flask) and the cells were cultured for one day. Then, a cell suspension was prepared with proliferation medium so as to be 83,000 cells/mL, and the suspension was plated into a type I 96-well collagen-coated microplate (SUMITOMO BAKELITE CO., ltd.) so as to be 5,000 cells/well (60 μL/well). For the blank, the proliferation medium without the cells was plated into the well (blank well) of each plate.
# Further, 1) in the group treated with the test compound, 3 μL/well of a solution in which the test compound (100 μM) was dissolved in DMSO solution and diluted with differentiation-inducing medium by 20 times (final concentration of the test compound: 100 nM, final concentration of DMSO: 0.1% (v/v)) were added to the well where the cells were plated. 2) In the control group, 3 μL/well of DMSO solution that was diluted with differentiation-inducing medium by 20 times (final concentration of DMSO: 0.1% (v/v)) were added to the well where the cells were plated. Further, 3) in the blank group, 3 μL/well of DMSO solution that was diluted with differentiation-inducing medium by 20 times (final concentration: 0.1% (v/v)) were added to the blank well.
# After culturing for 5 days, all differentiation-inducing medium was discarded and replaced with 60 μL of 10% (v/v) of formaldehyde solution (for fixation) in each well and the cells were kept stationary for 20 min at room temperature. After this the fixative solution was discarded and replaced with 60 μL of 0.2% (v/v) Triton X (Sigma-Aldrich Japan K. K.) solution in each well and kept stationary for 5 min at the room temperature. Then all Triton X solution was discarded and replaced with 60 μL of 60% (v/v) isopropanol solution containing dissolved Oil Red 0 (Sigma-Aldrich Japan K. K.) so as to be 0.3%, which was adipose tissue staining solution, and the well was left stationary for 10 min at room temperature. After the adipose tissue staining solution was discarded, the well was washed twice with 60 μL of 60% (v/v) isopropanol solution. Then, 100 μL of the DMSO were added to each well and stirred for 5 min at room temperature. The absorbance was measured at 550 nm (ABS550) with a multi-plate reader (LabsSystems), and the stained amount by Oil Red 0 was determined. The measured level at ABS550 in the control group was defined as 100%, while the level at ABS550 in the blank group was defined as 0%. The differentiation rate (%) of the adipocytes treated with the test compound was calculated.
# [2] = system: Mouse preadipocyte strain 3T3-L1; assay: Inhibition of differentiation as an indication of acetic acid uptake; assay type: cell-based; details: Mus musculus, 3T3-L1, 0.1 μM test substance, control (0.01% dimethylsulfoxide) = 100%, read-out: Rate of Uptake (%) of [2-14C] acetic acid
# Method: As the basal medium, Dulbecco's modified Eagle's (DEM) medium (NISSUI PHARMACEUTICAL CO., LTD) was used. […] All culturing in the present Test Example was carried out in a CO2 incubator at 37° C. and 10% CO2 concentration.
# The successively cultured 3T3-L1 cells were inoculated in a Biocoat Collagen I 96-well white/clear plate (Becton Dickinson and Co.) at a concentration of 4,900 cells/well, and were cultured in the basal medium containing added 10% (v/v) inactivated bovine fetal serum (FBS) for 10 days.
# The medium was replaced with a differentiation-inducing medium in which inactivated FBS (final concentration: 5%), insulin (Sigma-Aldrich Japan K. K., final concentration: 10 μg/mL), isobutyl methyl xanthine (Aldrich K. K., final concentration: 0.5 mM) and dexamethazone (final concentration: 1 μM) were added so as to be at the final concentrations indicated in the parentheses. The cells were divided in the following 2 groups and were cultured for 4 days; 1) in the presence of 0.01% (v/v) dimethylsulfoxide, and 2) in the presence of 0.01% (v/v) dimethylsulfoxide in which was dissolved 1 mM of the test substance (final concentration of 0.1 μM). Then, the medium was further replaced with a maintenance medium in which inactivated […] and insulin were added to the base medium so as to be at final concentrations of 5% and 100 ng/mL, respectively, and the cells were cultured for 2 days.
# The inhibitory activity of the test compound against cell differentiation was assayed by using uptake of [2-^14C] acetic acid into the cultured cells as an indicator. […] Then the cells were further incubated with the newly prepared medium for 1 hr. After washing the well with PBS (−), the cells were dried. To these wells, 100 μL/well of a scintillation cocktail (Hewlett-Packard Co., MICROSCINT-20 PACKARD) were added and their radioactivities were determined with a Packard TopCont microplate Scintillation Counter (Hewlett-Packard Co., PACKARD) and the uptake level of [2-^14C] acetic acid into the cultured cell was calculated.
# On the basis of the calculated uptake level of [2-^14C] acetic acid into the cultured cells, the relative uptake level of [2-^14C] acetic acid in the group treated with the test compound was calculated against the uptake level of [2-^14C] acetic acid in the presence of 0.01% (v/v) dimethylsulfoxide solution described in 1) (100%).
# Value=Uptake Level (cpm) of [2-^14C] Acetic Acid in the Presence of the Test Substance
# Control=Uptake Level (cpm) of [2-^14C] Acetic Acid in the Control Group (0.01% dimethylsulfoxide)
# Uptake Rate (%) of [2-^14C] Acetic Acid=100×[Value]/[Control]
# [3] = system: leptin production; assay: Enhancing activity for leptin production in adipocytes (ELISA); assay type: cell-based, rat; details: leptin concentration as % of control group; for Facilitating activity to produce leptin: 24 hr
# Method in brief: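 Leptin release, quantified by rat leptin ELISA, expressed as percent of 0.1% DMSO control after 24 h at 37 °C. Cells were floating adipocytes isolated by collagenase digestion of epididymal fat from male 6-week Wistar Imamichi rats; compound tested at 1 nM–1 µM final.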
# [4] = Rattus norvegicus, Adipocyte, 24 h, read-out: Facilitating activity to produce leptin
# [5] = Rattus norvegicus, Adipocyte, 24 h, 100 nm, read-out: Facilitating activity to produce leptin
compound,measurement,setting,value
"N#Cc1ccccc1NC(=O)c1cc([N+](=O)[O-])ccc1Cl [Example 22, N-(2-Cyanophenyl)-(2-chloro-5-nitrophenyl)carboxamide]",activity at 0.1 µM,[1],127%
same,activity at 0.1 µM,[2],51.5%
"CCNc1ccc(NC(=O)c2cc([N+](=O)[O-])ccc2Cl)cc1 [Example 115, N-(4-Ethylaminophenyl)-(2-chloro-5-nitrophenyl)carboxamide mono-hydrochloride]",activity at 0.1 µM,[1],147%
"CCN(CC)c1ccc(NC(=O)c2cc([N+](=O)[O-])ccc2Cl)c(C)c1 [Example 131, N-[4-(Diethylamino)-2-methylphenyl]-(2-chloro-5-nitrophenyl)carboxamide]",activity at 0.1 µM,[1],132%
"O=C(Nc1ccc(N2CCNCC2)cc1)c1cc([N+](=O)[O-])ccc1Cl [Example 133, N-[4-(Piperazin-1-yl)phenyl]-(2-chloro-5-nitrophenyl)carboxamide]",activity at 0.1 µM,[1],141%
"CCCCCCNc1ccc(NC(=O)c2cc([N+](=O)[O-])ccc2Cl)cc1 [Example 137, N-(4-n-Hexylaminophenyl)-(2-chloro-5-nitrophenyl)carboxamide]",activity at 0.1 µM,[1],150%
"CC(C)(C)c1cc(C(=O)Nc2cccc(NC(=O)c3cc([N+](=O)[O-])ccc3Cl)c2)cc(C(C)(C)C)c1O [Example 162, N-[3-[(3,5-di-tert-Butyl-4-hydroxybenzoyl)amino]phenyl]-(2-chloro-5-nitrophenyl)carboxamide]",activity at 0.1 µM,[1],170%
same,activity at 1 µM,[3]; [4],111%
"CC(C)(C)OC(=O)N1CCN(C(=O)c2ccc(NC(=O)c3cc([N+](=O)[O-])ccc3Cl)cc2)CC1 [Example 166, N-[4-(4-tert-Butoxycarbonylpiperazin-1-ylcarbonyl)phenyl]-(2-chloro-5-nitrophenyl)carboxamide]",activity at 0.1 µM,[1],115%
same,activity at 1 µM,[3]; [4],114%
same,activity at 0.1 µM,[3]; [5],115%
"CCOC(=O)Cc1ccc(NC(=O)c2cc([N+](=O)[O-])ccc2Cl)cc1 [Example 168, Ethyl [4-(2-chloro-5-nitrobenzoylamino)phenyl]acetate]",activity at 0.1 µM,[1],140%
"Cl.NCCc1ccc(NC(=O)c2cc([N+](=O)[O-])ccc2Cl)cc1 [Example 169, N-[4-(2-Aminoethyl)phenyl]-(2-chloro-5-nitrophenyl)carboxamide Hydrochloride 0.2 Hydrate]",Rate of Differentiation (%),[1],114.9%
same,Facilitating activity to produce leptin,[3]; 100 nm,111.6%
"O=C(O)Cc1ccc(NC(=O)c2cc([N+](=O)[O-])ccc2Cl)cc1 [Example 170, [4-(2-Chloro-5-nitrobenzoylamino)phenyl]acetic Acid]",activity at 0.1 µM,[1],115%
same,activity at 0.1 µM,[3]; [5],117%
"CCN(CC)c1ccc(NC(=O)c2cc([N+](=O)[O-])ccc2Cl)cc1 [Example 172, N-(4-Diethylaminophenyl)-(2-chloro-5-nitrophenyl)carboxamide]",activity at 0.1 µM,[1],120%
"CN(C)c1ccc(NC(=O)c2cc([N+](=O)[O-])ccc2Cl)cc1 [Example 173, N-(4-Dimethylaminophenyl)-(2-chloro-5-nitrophenyl)carboxamide]",activity at 0.1 µM,[1],134%
same,activity at 1 µM,[3]; [4],119%
same,activity at 0.001 µM,"[3]; Rattus norvegicus, Adipocyte, 24 h, 1 nm, read-out: Facilitating activity to produce leptin",112%
"CC(=O)N1CCN(c2ccc(NC(=O)c3cc([N+](=O)[O-])ccc3Cl)cc2)CC1 [Example 183, N-[4-(4-Acetylpiperazin-1-yl)phenyl]-(2-chloro-5-nitrophenyl)carboxamide]",activity at 0.1 µM,[1],118%
same,activity at 0.1 µM,[3]; [5],112%
"O=C(Nc1ccc(S(=O)(=O)Nc2ccc(-n3ccnc3)cc2)cc1)c1cc([N+](=O)[O-])ccc1Cl [Example 187, N-[[4-[4-(Imidazol-1-yl)phenyl]aminosulfonyl]phenyl]-(2-chloro-5-nitrophenyl)carboxamide]",Rate of Differentiation (%),[1],112.7%
same,Facilitating activity to produce leptin,[3]; 10 nm,113.3%
same,Facilitating activity to produce leptin,[3]; 100 nm,126.2%
"Nc1ccc2nc(NC(=O)c3cc([N+](=O)[O-])ccc3Cl)sc2c1 [Example 261, N-(6-Aminobenzothiazol-2-yl]-(2-chloro-5-nitrophenyl)carboxamide]",activity at 0.1 µM,[1],129%
"CS(=O)(=O)Nc1ccc(-c2csc(NC(=O)c3cc([N+](=O)[O-])ccc3Cl)n2)cc1 [Example 262, N-[4-(4-Methanesulfonylaminophenyl)thiazol-2-yl]-(2-chloro-5-nitrophenyl)carboxamide]",activity at 0.1 µM,[1],167%
"CC(=O)Nc1ccc(-c2csc(NC(=O)c3cc([N+](=O)[O-])ccc3Cl)n2)cc1 [Example 263, N-[4-(4-Acetylaminophenyl)thiazol-2-yl]-(2-chloro-5—nitrophenyl)carboxamide]",activity at 0.1 µM,[1],154%
"NC(=O)N1CCN(c2ccc(NC(=O)c3cc([N+](=O)[O-])ccc3Cl)cc2)CC1 [Example 264, N-[4-[(4-Aminocarbonyl)piperazin-1-yl]phenyl]-(2-chloro-5-nitrophenyl)carboxamide]",Rate of Differentiation (%),[1],111.5%
"CC(=O)Nc1cccc(-c2csc(NC(=O)c3cc([N+](=O)[O-])ccc3Cl)n2)c1 [Example 277, N-[4-(3-Acetylaminophenyl)thiazol-2-yl]-(2-chloro-5-nitrophenyl)carboxamide]",activity at 0.1 µM,[1],123%
"CC(=O)Nc1ccc2nc(NC(=O)c3cc([N+](=O)[O-])ccc3Cl)sc2c1 [Example 280, N-(6-Acetylaminobenzothiazol-2-yl)-(2-chloro-5-nitrophenyl)carboxamide]",activity at 0.1 µM,[1],190%
"NC(=O)Nc1ccc2nc(NC(=O)c3cc([N+](=O)[O-])ccc3Cl)sc2c1 [Example 281, N-(6-Aminocarbonylaminobenzothiazol-2-yl)-(2-chloro-5-nitrophenyl)carboxamide]",activity at 0.1 µM,[1],200%
